From patent US20160316732A1, “CONTROL AND CHARACTERIZATION OF PSYCHOTIC STATES” (priority 2010, published 2016)

Key:
[1] = system: layer V pyramidal neurons; test: Responses of layer V pyramidal neurons to light flashes (ChR2 stimulation) in prefrontal slices; type: cell-based, Thy1::ChR2 transgenic mice; conditions: for spikes at short interspike intervals: quinpirole, or haloperidol or sulpiride, FIG. 2E, n=4 cells per group; for spiking in response to ChR2 stimulation: p<0.001 vs control
Protocol: We used prefrontal slices from Thy1::ChR2 mice to study network activity evoked by light. Brain slices isolated from Thy1::ChR2 transgenic mice underwent in vitro light stimulation and a layer V pyramidal neuron was monitored by electrophysiological recordings for cellular responses to trains of light flashes (470 nm, 1 msec) in the absence of a D2 agonist (control) or presence a D2 agonist (20 μM quinpirole). The brain slice was subsequently washed to remove the quinpirole and treated with either 0.2-2 μM haloperidol or 5 μM sulpiride, both of which are known D2 antagonists. The spike rate of the layer V pyramidal neurons and the amount of information transmitted by the spike rate was quantified as well as the number of spikes as a function of interspike interval.

[2] = system: layer V pyramidal neurons; test: Responses of layer V pyramidal neurons to hyperpolarizing/depolarizing current pulses (activity-dependent depolarization); type: cell-based, Thy1::ChR2 transgenic mice; conditions: for cells in which the activity-dependent depolarization and related phenomena were elicited: 5 μM (−) Quinpirole or 10 μM quinpirole, pooled; for effect on PCP-elicited activity-dependent depolarization and afterdepolarization: n=2 cells
Protocol: Electrophysiological recordings monitored the cellular responses of the layer V pyramidal neurons to in vitro light stimulation when under the pharmacological conditions or treatments.
Brain slices isolated from Thy1::ChR2 transgenic mice underwent direct current stimulation and a layer V pyramidal neuron was monitored by electrophysiological recordings for cellular responses to depolarizing current pulses in the absence or presence of 5 μM PCP.

[3] = system: layer V pyramidal neurons; test: Whole-cell voltage-clamp of ion channel currents mediating the activity-dependent depolarization; type: cell-based, mice
Excerpt: We next sought to identify possible ion channel currents mediating the activity-dependent depolarization, in whole-cell voltage-clamp.

[4] = system: layer V pyramidal neurons; test: Responses of layer V pyramidal neurons to light flashes (ChR2 stimulation) in prefrontal slices; type: cell-based, Thy1::ChR2 transgenic mice
[5] = system: mice; test: Social exploration / social behavior in mice; type: in vivo; conditions: PCP 5 mg/kg alone; FIG. 4C bottom
[6] = cells with prominent sag and rebound afterdepolarization
[7] = haloperidol (0.2-2 μM) or sulpiride (5 μM), pooled group
[8] = haloperidol (0.2-2 μM) or sulpiride (5 μM), pooled group, p<0.01 vs control

SMILES: CCCN1CCC[C@@H]2Cc3n[nH]cc3C[C@H]21 [quinpirole]
- layer V pyramidal neurons with prolonged depolarization outlasting direct stimulation after high-frequency spiking ([1]; quinpirole 20 μM, all layer V pyramidal neurons recorded): 16/26
- amount of information the spike rate transmitted about the rate of light flashes ([1]; quinpirole 20 μM, compared with control, p<0.05): intermediate
- change in responses to trains of light flashes ([1]; quinpirole 20 μM, light flashes 470 nm, 1 msec): marked change in the responses
- spike afterhyperpolarization (AHP) ([1]; quinpirole 20 μM, single 1 msec light flash, FIG. 2F): enhanced the spike afterhyperpolarization
- spikes at short interspike intervals [1]: loss of spikes at short interspike intervals
- spike rate in response to ChR2 stimulation ([1]; quinpirole, p<0.01 vs control): lower spike rates
- cells in which the activity-dependent depolarization and related phenomena were elicited [2, 6]: 8/10
- cells exhibiting the activity-dependent depolarization ([2]; 20 μM quinpirole, cells with prominent sag and rebound afterdepolarization): 16/17
- cells with bistability having peaks in power spectra between 20 and 40 Hz ([2]; quinpirole, FIG. 3F): 4/6
- cells exhibiting the activity-dependent depolarization ([2]; quinpirole, cells without prominent sag and rebound afterdepolarization): 0/9
- cells exhibiting the activity-dependent depolarization ([2]; quinpirole, neurons strongly expressing ChR2): 14/18
- current at −30 mV after a series of 1 msec steps to 0 mV ([3]; quinpirole 20 μM): elicited a slowly activating depolarizing current
- tail current at −60 mV after a series of 1 msec steps to 0 mV ([3]; quinpirole 20 μM): increased a rapidly inactivating tail current

SMILES: c1ccc(C2(N3CCCCC3)CCCCC2)cc1 [PCP, phencyclidine]
- spiking at short interspike intervals during trains of light pulses ([4]; PCP, Thy1::ChR2 cortical slices): suppressed spiking at short interspike intervals
- response to depolarizing current pulses ([2]; PCP 5 μM, FIG. 4A): exhibits an afterdepolarization and persistent firing
- cells with activity-dependent depolarization and afterdepolarization outlasting direct stimulation ([2]; PCP 5 μM, all layer V pyramidal neurons recorded): 6/12
- cells with activity-dependent depolarization ([2]; PCP 5 μM, neurons with prominent sag and rebound afterdepolarization): 6/9
- cells with activity-dependent depolarization ([2]; PCP 5 μM, neurons without prominent sag and rebound afterdepolarization): 0/3
- wide action potentials (possible dendritic Ca2+ spikes) ([2]; PCP, FIG. 4A): in some cases found to elicit wide action potentials
- social exploration [5]: impairs social exploration

SMILES: O=C(CCCN1CCC(O)(c2ccc(Cl)cc2)CC1)c1ccc(F)cc1 [haloperidol]
- reversal of quinpirole-elicited prolonged depolarization ([4]; 0.2-10 μM haloperidol, washout of quinpirole and simultaneous application): 9/9
- quinpirole-elicited prolonged depolarization after washing out quinpirole ([1]; haloperidol 1 μM, FIG. 2B): abolished
- spiking in response to ChR2 stimulation [1, 7]: least
- amount of information the spike rate transmitted about the rate of light flashes [1, 8]: lowest
- spikes at short interspike intervals [1]: loss of spikes at short interspike intervals
- effect on activity-dependent depolarization present in control conditions (before quinpirole) ([2]; haloperidol 0.2-2 μM, n=3): convert bistability into a more modest afterdepolarization, or block the activity dependent depolarization altogether
- block of the quinpirole activity-dependent depolarization ([2]; haloperidol 0.2-10 μM): 9/9

SMILES: CCN1CCCC1CNC(=O)c1cc(S(N)(=O)=O)ccc1OC (stereo not shown) [sulpiride]
- reversal of quinpirole-elicited prolonged depolarization ([4]; 5 μM sulpiride, simultaneous application with quinpirole): 2/2
- spiking in response to ChR2 stimulation [1, 7]: least
- amount of information the spike rate transmitted about the rate of light flashes [1, 8]: lowest
- action potential width ([1]; quinpirole + sulpiride 5 μM, FIG. 2F): widened action potentials
- spikes at short interspike intervals [1]: loss of spikes at short interspike intervals
- block of the quinpirole activity-dependent depolarization ([2]; sulpiride 5 μM): 2/2
- effect on PCP-elicited activity-dependent depolarization and afterdepolarization ([2]; sulpiride 5 μM, PCP 5 μM): not blocked
- effect on PCP-elicited activity-dependent depolarization and afterdepolarization ([2]; sulpiride 5 μM, PCP 5 μM, listed as sulphide): not reversed
- effect on quinpirole-elicited currents at −30 mV and −60 mV ([3]; sulpiride 5 μM): blocked

SMILES: CCCN1CCC[C@@H]2Cc3n[nH]cc3C[C@H]21 [(−) Quinpirole]
- cells in which the activity-dependent depolarization and related phenomena were elicited [2, 6]: 8/10
